Results reported in patent publication US20240368150A1 (Hoffmann-La Roche Inc., priority 2021, published 2024).
Read-outs that look alike come from different tables or passages of the source.

Key:
hDGKalpha(1-735)-N-His = hDGKalpha(1-735)-N-His (Homo sapiens (Human), UniProt P23743); test: DGKalpha ADP Glo assay (in vitro DGK inhibition); type: biochemical; settings: DLG 125 uM, ATP 25 μM, DGK α 4 nM, 1 hour reaction
How it was run: (§1)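 His-tagged human DGKα (4 nM) and DGKζ (2 nM) phosphorylate DLG presented in DLG/PS/PC liposomes using ATP; reaction run 1 hour. ADP formed measured by ADP-Glo luminescence. Compounds tested as 11-point 1:3 dose response […], 2% DMSO final.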

hDGKzeta(1-928)-N-His = hDGKzeta(1-928)-N-His (Homo sapiens (Human), UniProt Q13574); test: DGKzeta ADP Glo assay (in vitro DGK inhibition); type: biochemical; settings: DLG 125 uM, ATP 50 μM, DGK ζ 2 nM, 1 hour reaction
How it was run: as §1

primary human T-cells [1] = test: Proliferation assay after 5 days (CellTiter-Glo, CD3 stimulation; PBS counter screen); type: cell-based; settings: CD3 stimulation; for EC50: primary human T-cells, CellTiter-Glo after 5 days, EC50 of fitted sigmoidal curve, read-out: Tcell Proliferation CD3 EC50; for Emax: read-out: Emax proliferation (% activation)
How it was run: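 Read-out: CellTiter-Glo 2.0 luminescence (ATP ∝ cell number) at day 5 after compound addition. Compounds activating unstimulated cells or reducing viability flagged.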

MV-3 cells = test: T-cell - TCB - MV3 killing assay (MCSP-TCB, RFP object count by Incucyte); type: cell-based, human; settings: Homo sapiens, MV-3, 120 h, 5 d; for Emax: normalized: MCSP-TCB only = neutral control, 20 μM reference compound A1 = 100%, read-out: MSCP TCB killing MV-3 cells 5 d Emax; for EC50: primary human T-cells + MCSP-TCB, MV-3 RFP cells, read-out: MSCP TCB killing MV-3 cells 5 d EC50
primary human T-cells [2] = tested on: primary human T-cells
[3] = Homo sapiens, T-cell, 120 h, 5 days, normalized to reference compound A1 as stimulator control = 100%, DMSO neutral control

Chain of hDGKalpha(1-735)-N-His (P23743 whole entry): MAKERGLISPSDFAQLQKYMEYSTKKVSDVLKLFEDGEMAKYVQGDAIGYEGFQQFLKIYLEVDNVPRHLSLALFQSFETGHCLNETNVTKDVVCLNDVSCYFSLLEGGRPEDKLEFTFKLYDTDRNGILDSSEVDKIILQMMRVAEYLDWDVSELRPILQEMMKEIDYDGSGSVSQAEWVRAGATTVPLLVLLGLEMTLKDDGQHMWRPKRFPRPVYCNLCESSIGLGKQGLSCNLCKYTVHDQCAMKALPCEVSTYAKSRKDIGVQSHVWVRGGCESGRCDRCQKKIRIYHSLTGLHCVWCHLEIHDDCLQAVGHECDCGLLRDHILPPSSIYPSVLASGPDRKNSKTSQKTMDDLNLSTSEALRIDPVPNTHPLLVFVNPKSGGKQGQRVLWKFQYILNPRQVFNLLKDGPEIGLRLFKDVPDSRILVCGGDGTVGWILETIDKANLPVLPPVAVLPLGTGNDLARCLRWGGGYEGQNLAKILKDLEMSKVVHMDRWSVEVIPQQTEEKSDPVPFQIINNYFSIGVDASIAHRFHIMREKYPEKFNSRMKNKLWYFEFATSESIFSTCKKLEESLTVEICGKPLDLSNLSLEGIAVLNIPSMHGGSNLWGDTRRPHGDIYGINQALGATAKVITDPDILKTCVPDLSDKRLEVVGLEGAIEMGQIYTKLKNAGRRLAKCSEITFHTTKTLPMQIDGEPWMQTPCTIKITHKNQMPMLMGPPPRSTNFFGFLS
Chain of hDGKzeta(1-928)-N-His (Q13574 whole entry): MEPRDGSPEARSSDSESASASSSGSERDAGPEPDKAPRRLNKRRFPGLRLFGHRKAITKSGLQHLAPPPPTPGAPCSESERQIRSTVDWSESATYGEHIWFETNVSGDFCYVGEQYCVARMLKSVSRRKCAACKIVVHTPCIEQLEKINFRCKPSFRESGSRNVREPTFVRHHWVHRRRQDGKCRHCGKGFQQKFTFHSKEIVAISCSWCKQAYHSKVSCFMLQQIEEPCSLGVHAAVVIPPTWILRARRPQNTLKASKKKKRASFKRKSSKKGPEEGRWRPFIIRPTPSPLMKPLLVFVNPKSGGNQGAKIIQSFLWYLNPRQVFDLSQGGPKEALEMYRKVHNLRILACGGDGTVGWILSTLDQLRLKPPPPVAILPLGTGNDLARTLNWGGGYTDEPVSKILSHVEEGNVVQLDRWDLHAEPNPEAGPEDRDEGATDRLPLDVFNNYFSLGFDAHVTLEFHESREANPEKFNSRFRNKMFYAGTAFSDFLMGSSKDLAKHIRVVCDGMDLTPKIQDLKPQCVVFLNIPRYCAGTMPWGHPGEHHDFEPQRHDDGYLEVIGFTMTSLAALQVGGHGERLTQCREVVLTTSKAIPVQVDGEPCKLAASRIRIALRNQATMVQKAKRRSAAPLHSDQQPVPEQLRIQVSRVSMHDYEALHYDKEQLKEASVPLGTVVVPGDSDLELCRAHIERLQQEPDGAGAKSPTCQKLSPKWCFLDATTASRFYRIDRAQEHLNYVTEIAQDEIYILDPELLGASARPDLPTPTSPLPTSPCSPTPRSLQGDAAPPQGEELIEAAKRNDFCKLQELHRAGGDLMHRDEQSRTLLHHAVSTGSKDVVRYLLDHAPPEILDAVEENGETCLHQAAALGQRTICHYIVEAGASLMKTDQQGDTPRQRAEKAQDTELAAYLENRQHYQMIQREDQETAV

IC50 (hDGKalpha(1-735)-N-His) | IC50 (hDGKzeta(1-928)-N-His) | EC50 (primary human T-cells [2]) | SMILES | Emax proliferation (% activation) (primary human T-cells [1]; 5 days, normalized to reference compound A1 as stimulator control = 100%, DMSO neutral control) | EC50 (primary human T-cells [1]) | Emax (MV-3 cells) | EC50 (MV-3 cells) | Emax (primary human T-cells [1]; [3]) | EC50 (primary human T-cells [1]; Homo sapiens, T-cell, 120 h)
452 nM | 622 nM | 149 nM | CC(C)(C)c1nnc(-c2cc3c(cc2F)[S+]([O-])C[C@H](N)C(=O)N3Cc2ccc(OC(F)(F)F)cc2)o1 (stereo partly drawn) [Example 62, (3R)-3-amino-7-(5-tert-butyl-1,3,4-oxadiazol-2-yl)-8-fluoro-1-oxo-5-[[14-(trifluoromethoxy)phenyl]methyl]-2,3-dihydro-1λ^4,5-benzothiazepin-4-one] | 88 % activation | 721 nM | 81% | 260 nM |  | 
643 nM | 685 nM | 4180 nM | CC(C)(CO)c1nnc(-c2cc3c(cc2F)S(=O)(=O)C[C@H](N)C(=O)N3Cc2ccc(Cl)cc2)o1 [Example 86, (3R)-3-amino-5-[(4-chlorophenyl)methyl]-8-fluoro-7-[5-(2-hydroxy-1,1-dimethyl-ethyl)-1,3,4-oxadiazol-2-yl]-1,1-dioxo-2,3-dihydro-1λ^6,5-benzothiazepin-4-one] |  |  | 100% | 520 nM | 95% | 777 nM
54500 nM | 40100 nM | 214 nM | CC(C)(C)c1nnc(-c2cc3c(cc2F)S(=O)(=O)C[C@H](NC(=O)CN)C(=O)N3Cc2ccc(Cl)cc2)o1 [Example 266, 2-amino-N-[(3R)-7-(5-tert-butyl-1,3,4-oxadiazol-2-yl)-5-[(4-chlorophenyl)methyl]-8-fluoro-1,1,4-trioxo-2,3-dihydro-1λ^6,5-benzothiazepin-3-yl]acetamide] |  |  | 76% | 20 nM | 137% | 77.5 nM
301 nM | 251 nM | 1070 nM | CC(C)(CO)c1nc(-c2cc3c(cc2F)S(=O)(=O)C[C@H](N)C(=O)N3Cc2ccc(Cl)cc2)no1 [Example 303, (3R)-3-amino-5-[(4-chlorophenyl)methyl]-8-fluoro-7-[5-(2-hydroxy-1,1-dimethyl-ethyl)-1,2,4-oxadiazol-3-yl]-1,1-dioxo-2,3-dihydro-1λ^6,5-benzothiazepin-4-one] |  |  | 92% | 400 nM | 140% | 605 nM
857 nM | 176 nM | 74.6 nM | CC(N)(c1nc(-c2cc3c(cc2F)S(=O)(=O)C[C@H](N)C(=O)N3Cc2ccc(OC(F)(F)F)cc2)no1)C(F)(F)F (stereo partly drawn) [Example 331, (3R)-3-amino-7-[5-(1-amino-2,2,2-trifluoro-1-methyl-ethyl)-1,2,4-oxadiazol-3-yl]-8-fluoro-1,1-dioxo-5-[[4-(trifluoromethoxy)phenyl]methyl]-2,3-dihydro-1λ^6,5-benzothiazepin-4-one] |  |  | 116% | 30 nM | 126% | 58.4 nM
876 nM | 933 nM | 525 nM | CC(C)(C)c1nnc(-c2ccc3c(c2)N(Cc2ccc(Cl)cc2)C(=O)[C@@H](N)CS3(=O)=O)o1 [Example 361] |  |  | 100% | 560 nM | 100% | 361 nM
3310 nM | 658 nM | 2400 nM | N[C@H]1CS(=O)(=O)c2ccc(-c3nnc(C4(C5CC5)CCCO4)o3)cc2N(Cc2ccc(Cl)cc2)C1=O (stereo partly drawn) [Example 381, (3R)-3-amino-5-[(4-chlorophenyl)methyl]-7-[5-(2-cyclopropyltetrahydrofuran-2-yl)-1,3,4-oxadiazol-2-yl]-1,1-dioxo-2,3-dihydro-1λ^6,5-benzothiazepin-4-one] |  |  | 101% | 160 nM | 119% | 2420 nM
4580 nM | 2250 nM | 792 nM | CN1CCCC(F)(c2nnc(-c3ccc4c(c3)N(Cc3ccc(Cl)cc3)C(=O)[C@@H](N)CS4(=O)=O)o2)C1 (stereo partly drawn) [Example 384, (3R)-3-amino-5-[(4-chlorophenyl)methyl]-7-[5-(3-fluoro-1-methyl-3-piperidyl)-1,3,4-oxadiazol-2-yl]-1,1-dioxo-2,3-dihydro-1λ^6,5-benzothiazepin-4-one] |  |  | 110% | 990 nM | 112% | 698 nM
5020 nM | 14000 nM | 2510 nM | CC1(Nc2nnc(-c3ccc4c(c3)N(Cc3ccc(Cl)cc3)C(=O)[C@@H](N)CS4(=O)=O)o2)CC(F)(F)C1 [Example 406, (3R)-3-amino-5-[(4-chlorophenyl)methyl]-7-[5-[(3,3-difluoro-1-methyl-cyclobutyl)amino]-1,3,4-oxadiazol-2-yl]-1,1-dioxo-2,3-dihydro-1λ^6,5-benzothiazepin-4-one] |  |  | 85% | 1540 nM | 79% | 1860 nM
2690 nM | 484 nM | 2360 nM | N[C@H]1CS(=O)(=O)c2ccc(-c3nnc(N4CCOC(C(F)(F)F)C4)o3)cc2N(Cc2ccc(Cl)cc2)C1=O (stereo partly drawn) [Example 412, (3R)-3-amino-5-[(4-chlorophenyl)methyl]-1,1-dioxo-7-[5-[2-(trifluoromethyl)morpholin-4-yl]-1,3,4-oxadiazol-2-yl]-2,3-dihydro-1λ^6,5-benzothiazepin-4-one] |  |  | 92% | 140 nM | 126% | 176 nM
1450 nM | 1680 nM | 369 nM | N[C@H]1CS(=O)(=O)c2ccc(-c3nnc(CC(F)(F)F)o3)cc2N(Cc2ccc(OC(F)(F)F)cc2)C1=O [Example 416, (3R)-3-amino-1,1-dioxo-7-[5-(2,2,2-trifluoroethyl)-1,3,4-oxadiazol-2-yl]-5-[[4-(trifluoromethoxy)phenyl]methyl]-2,3-dihydro-1λ^6,5-benzothiazepin-4-one] |  |  | 95% | 530 nM | 58% | 402 nM

SMILES | IC50 (hDGKalpha(1-735)-N-His) | IC50 (hDGKzeta(1-928)-N-His) | EC50 (primary human T-cells [2]) | Emax proliferation (% activation) (primary human T-cells [1]; 5 days, normalized to reference compound A1 as stimulator control = 100%, DMSO neutral control) | EC50 (primary human T-cells [1]) | Emax (MV-3 cells) | EC50 (MV-3 cells) | Emax (primary human T-cells [1]; [3]) | EC50 (primary human T-cells [1]; Homo sapiens, T-cell, 120 h)
COC(=O)N1CC2CC(c3nnc(-c4cc5c(cc4F)S(=O)(=O)C[C@H](N)C(=O)N5Cc4ccc(Cl)cc4)o3)(C2)C1 [Example 184, methyl 1-[5-[(3R)-3-amino-5-[(4-chlorophenyl)methyl]-8-fluoro-1,1,4-trioxo-2,3-dihydro-1λ^6,5-benzothiazepin-7-yl]-1,3,4-oxadiazol-2-yl]-3-azabicyclo[3.1.1]heptane-3-carboxylate] | 244 nM | 290 nM | 109 nM |  |  | 79% | 90 nM | 77% | 24.2 nM
N[C@H]1CS(=O)(=O)c2ccc(-c3nnc(C4(N)CCCCC4)o3)cc2N(Cc2ccc(OC(F)(F)F)cc2)C1=O [Example 417, (3R)-3-amino-7-[5-(1-aminocyclohexyl)-1,3,4-oxadiazol-2-yl]-1,1-dioxo-5-[[4-(trifluoromethoxy)phenyl]methyl]-2,3-dihydro-1λ^6,5-benzothiazepin-4-one] | 6410 nM | 2110 nM | 328 nM |  |  | 182% | 1860 nM | 70% | 337 nM
CC(C)(C)c1nnc(-c2ccc3c(c2)N(Cc2ccc(OC4CCCC4)cc2)C(=O)[C@@H](N)CS3(=O)=O)o1 [Example 430, (3R)-3-amino-7-(5-tert-butyl-1,3,4-oxadiazol-2-yl)-5-[[4-(cyclopentoxy)phenyl]methyl]-1,1-dioxo-2,3-dihydro-1λ^6,5-benzothiazepin-4-one] | 467 nM | 594 nM | 24.2 nM |  |  | 96% | 60 nM | 110% | 97 nM
